Experimental data from paper PMC12173412 (PLOS Neglected Tropical Diseases, 2025).

Tests used:
[1] = target: Odor Binding Protein-like (OBPL); design: species or system Haemaphysalis longicornis
[2] = target: Niemann-Pick type C2 (NPC2); assay type: binding, Haemaphysalis longicornis
[3] = target: Odor Binding Protein-like (OBPL); design: species or system Haemaphysalis longicornis; remark: listed apart in the source
[4] = target: Niemann-Pick type C2 (NPC2); assay type: binding, Haemaphysalis longicornis; remark: listed apart in the source

c1ccc(Nc2cccc3ccccc23)cc1 [1-NPN]
Kd [1]: 2.56 µM
Kd [2]: 3.18 µM

Cc1c[nH]c2ccccc12 [3-methylindole]
Ki [3]: 4.19 µM
Ki [4]: 15.4 µM

c1ccc2[nH]ccc2c1 [indole]
Ki [3]: 2.26 µM
Ki [4]: 10.3 µM
